What was measured:
[1] = molecular target: EphA2 receptor (Mus musculus, UniProt Q03145); type: binding; details: for activity in the binding assay (in words): EphA2-ephrin-A1 ELISA
[2] = tested on: PC3 cells; assay: LDH assay; type: cell-based, human; details: 2 h, at the tested concentrations

Chain of EphA2 receptor (Q03145 26-538 limits assumed): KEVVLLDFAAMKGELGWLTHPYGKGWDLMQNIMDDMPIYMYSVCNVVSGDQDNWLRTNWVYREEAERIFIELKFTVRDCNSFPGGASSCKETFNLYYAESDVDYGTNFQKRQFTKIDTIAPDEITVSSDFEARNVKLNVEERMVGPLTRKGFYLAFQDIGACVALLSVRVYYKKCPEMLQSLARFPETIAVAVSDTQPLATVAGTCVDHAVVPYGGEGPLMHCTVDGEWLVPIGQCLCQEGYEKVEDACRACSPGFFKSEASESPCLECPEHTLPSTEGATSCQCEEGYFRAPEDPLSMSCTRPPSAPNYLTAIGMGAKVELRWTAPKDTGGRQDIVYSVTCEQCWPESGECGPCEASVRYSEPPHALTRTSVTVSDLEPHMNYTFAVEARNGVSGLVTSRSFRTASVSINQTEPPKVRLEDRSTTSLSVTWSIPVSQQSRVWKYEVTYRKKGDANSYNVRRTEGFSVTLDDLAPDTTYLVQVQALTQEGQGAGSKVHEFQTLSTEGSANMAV

Row | Compound | IC50 [1] | activity in the binding assay (in words) [1] | other results
1 | C[C@H](CCC(=O)NCC(=O)O)[C@H]1CC[C@H]2[C@@H]3CC[C@@H]4C[C@H](O)CC[C@]4(C)[C@H]3CC[C@]12C [Compound 2, glycolithocholic acid] | – | – | reversibility of binding ([1]; 100 μM compound for 1 hour, with or without washing before 50 ng/mL ephrin-A1-Fc): reversible binder; nature of the antagonism ([1]; from Schild plot): competitive binding
2 | CC(=O)CNC(=O)CC[C@@H](C)[C@H]1CC[C@H]2[C@@H]3CC[C@@H]4C[C@H](O)CC[C@]4(C)[C@H]3CC[C@]12C [Compound 3] | > 316 µM | inactive | –
3 | C[C@H](CCC(=O)N[C@@H](CC(N)=O)C(=O)O)[C@H]1CC[C@H]2[C@@H]3CC[C@@H]4C[C@H](O)CC[C@]4(C)[C@H]3CC[C@]12C [Compound 10] | > 316 µM | – | –
4 | C[C@H](CCC(=O)N[C@H](CC(N)=O)C(=O)O)[C@H]1CC[C@H]2[C@@H]3CC[C@@H]4C[C@H](O)CC[C@]4(C)[C@H]3CC[C@]12C [Compound 11] | > 316 µM | – | –
5 | C[C@H](CCC(=O)N[C@@H](CC(=O)O)C(=O)O)[C@H]1CC[C@H]2[C@@H]3CC[C@@H]4C[C@H](O)CC[C@]4(C)[C@H]3CC[C@]12C [Compound 12] | > 316 µM | inactive | –
6 | C[C@H](CCC(=O)N[C@H](CC(=O)O)C(=O)O)[C@H]1CC[C@H]2[C@@H]3CC[C@@H]4C[C@H](O)CC[C@]4(C)[C@H]3CC[C@]12C [Compound 13] | > 316 µM | inactive | –
7 | C[C@H](CCC(=O)N[C@@H](Cc1c[nH]c2ccccc12)C(=O)O)[C@H]1CC[C@H]2[C@@H]3CC[C@@H]4C[C@H](O)CC[C@]4(C)[C@H]3CC[C@]12C [Compound 20] | – | – | cytotoxic effect (LDH assay) [2]: nor had cytotoxic effect
